Results from the NIST ThermoML archive (doi:10.1021/je060376d).
± gives the expanded uncertainty stated by the source.

Assay: refractive index (Na D-line) (dimensionless)
Conditions: 298.15 K; 101.33 kPa; Liquid; Standard Abbe refractometry

Row | refractive index | Structure (SMILES)
1 | 1.4498 ± 0.0008 | O=C1CCCCC1 [cyclohexanone]
2 | 1.3724 ± 0.0007 | CCCCCC [hexane]

Second part, the molecule before the results:

Row | Structure (SMILES) | refractive index
3 | COCCOCCOC [2,5,8-trioxanonane] | 1.4057 ± 0.0008
4 | CC(C)=O [acetone] | 1.3562 ± 0.0012
5 | C1CCCCC1 [cyclohexane] | 1.4236 ± 0.0008
6 | C=CCCCC [hex-1-ene] | 1.3853 ± 0.0008
7 | Cc1ccccc1 [toluene] | 1.4942 ± 0.0008
